This is an account of results in patent publication US4427686A, “Pharmacologically active benzopyranotriazole compounds” (Beecham Group Limited, priority 1980, dated 1984).

The test system of assay [1] is rat passive peritoneal anaphylaxis. Briefly: Rat Passive Peritoneal Anaphylaxis (PPA). As to conditions: Mean ± SEM, 5-7 rats per group, sodium salt. In kind it is in vivo, rat (Charles River Sprague Dawley male). From the text: (a) inhibit rat passive peritoneal anaphylaxis; and
(§1) The compounds were used in the form of their sodium salts.
(§2) Charles River Sprague Dawley male rats of 250-300 g. and Dunkin Hartley male white guinea pigs of 250-300 g. were used.
The method has been described previously. (Ross, Janet W., Smith, H. and Spicer, Barbara A. Increased vascular permeability during passive peritoneal anaphylaxis in the rate. Int. Arch. Allergy appl. Immun., 51, 226, 1976).
Rats were sensitised by giving an intraperitoneal injection of 0.5 ml of Bordetella pertussis vaccine (4×10^10 organisms/ml Burroughs Wellcome, London) and a subcutaneous injection of 0.5 ml of an emulsion of 100 mg of ovalbumin (chicken egg albumin, crystallised and lyophilised, grade 3, Sigma, London) in 2 ml of isotonic saline and 3 ml of Freund's incomplete adjuvant (Difco Laboratories, Michigan, USA).
The rats were bled by cardiac puncture, on day 18, the blood was pooled, and the serum separated, stored at -20° C. and thawed only once before use.
Rats were each given an intraperitoneal injection of 2 ml of a 1 in 5 dilution of the rat anti-serum in isotonic saline. Two hours later 0.3 ml of a 5% solution of Pontamine Sky Blue (Raymond A. Lamb, London) in isotonic saline was injected intravenously, followed by an intraperitoneal injection of the test compound in 1 ml of saline; (control rats received 1 ml of saline); followed 30 seconds later by an intraperitoneal injection of 5 ml of Tyrode's solution containing 50 μg/ml heparin and 0.4 mg/ml of ovalbumin. The concentrations of the compounds are quoted as those in the 6 ml of fluid injected intraperitoneally. Exactly five minutes after challenge the rats were stunned and bled and their peritoneal fluids were collected by opening their peritoneal cavities over funnels into polycarbonate tubes in ice. The supernatants were separated from the cellular residue by centrifugation at 150 g. for five minutes and were retained for assay of dye and histamine. Any samples obviously contaminated with blood were not used for estimation of dye. Groups of at least five rats were used for each dose of compound and the treatments were randomised.
Dye was assayed within two hours by measurement of optical density (OD) at 625 nm.
For histamine assay 0.5 ml samples of the supernatants were added to 1 ml volumes of 12% trichloracetic acid and stored at -20° C. The deproteinised samples were assayed using an automated spectrofluorimetric system (Technicon Autoanalyser) by a method similar to that of Evans, D. P., Lewis, J. A. and Thomson, D. S.: (An automated fluorimetric assay for the rapid determination of histamine in biological fluids. Life Sci., 12, 327, 1973).

Assay [2] concerns slow reacting substance of anaphylaxis, SRS-A, on isolated guinea pig ileum. Briefly: SRS-A Antagonism on Guinea Pig Ileum. Set-up: species or system guinea pig (Dunkin Hartley male). As to conditions: atropine 5×10^-7 M and mepyramine 10^-6 M, sodium salt, read-out: Approximate concentration to give a 50% inhibition of a less than maximal response to SRS-A. On the procedure: (b) antagonise the spasmogenic effects of slow reacting substance of anaphylaxis, SRS-A, on isolated guinea pig ileum.
as §1, §2
The compounds were evaluated as direct antagonists of slow reacting substance of anaphylaxis (SRS-A) by assay using the isolated guinea pig ileum.
SRS-A rat was obtained from the peritoneal cavity of the rat after passive peritoneal anaphylaxis by a method based on that of R. P. Orange, D. J. Stechschulte and K. F. Austen, J. Immunology, 105, 1087 (1970) as described by J. W. Ross, H. Smith and B. A. Spicer 1976, Increased vascular permeability during passive peritoneal anaphylaxis in the rat. Int. Arch. Allergy appl., 51, 226. The sensitising serum containing antibody was produced in rats as described by J. W. Ross et. al., ibid.
2 ml of a 1 in 5 dilution of the sensitising serum was injected by the peritoneal route into recipient rats and after 2 hours 5 ml of Tyrode's solution containing 0.4 mg/ml ovalbumin (Sigma Grade III) and 50 μg/ml heparin was injected by the same route. Five minutes after challenge the rats were stunned and bled and the peritoneal fluids collected into polycarbonate tubes in ice. After centrifugation at 150 g. for five minutes the supernatants were combined, heated in a boiling water bath for five minutes, cooled and stored at -20° C. The combined peritoneal fluids contained SRS-A and were used in the antagonism studies.
The SRS-A assays were carried out on isolated strips of guinea pig ileum in Tyrode's solution containing atropine 5×10^-7 M and mepyramine 10^-6 M as described by W. E. Brocklehurst, J. Physiology, 151, 416 (1960).
The ability of the antagonists was determined by their ability to reduce submaximal responses induced by SRS-A. The antagonists were added to the 4 ml bath in 0.1 ml volumes in aqueous solution half a minute before the addition of SRS-A and were present during induced contraction.

In a further assay the test system is released SRS-A. As to conditions: background art; cited from earlier work.
In assay [3] the test system is release of allergic response mediators. As to conditions: background art; cited from earlier work.

Take `CCCc1c(OCC(O)COc2ccc3c(=O)c4[nH]nnc4oc3c2C)ccc(C(C)=O)c1O` (stereo not shown) [Example 2, 6-[3-(4-Acetyl-3-hydroxy-2-n-propylphenoxy)-2-hydroxypropan-1-yloxy]-5-methyl-9-oxo-1H,9H-benzopyrano[2,3-d]-v-triazole]: the “Dye concentration in peritoneal fluid as % of mean of controls” value in assay [1] (2 × 10^-6 M injected ip) is given as 42 ± 5 % of mean of controls; in assay [1] (2 × 10^-7 M injected ip) it was 61 ± 7 % of mean of controls. In addition, the entries for the “Histamine concentration in peritoneal fluid as % of mean of controls” value in assay [1] (2 × 10^-6 M injected ip) and in assay [1] (2 × 10^-7 M injected ip) were 14 ± 2 % of mean of controls and 56 ± 1 % of mean of controls, respectively. For the same compound, the IC50 in assay [2] is approximately 32 nM.

For `CCCc1c(OCCCOc2cccc3oc4nn[nH]c4c(=O)c23)ccc(C(C)=O)c1O` [Example 4, 8-[3-(4-Acetyl-3-hydroxy-2-n-propylphenoxy)-propan-1-yloxy]-9-oxo-1H,9H-benzopyrano-[2,3-d]-v-triazole], in assay [1] (2 × 10^-5 M injected ip), the “Dye concentration in peritoneal fluid as % of mean of controls” value is recorded as 92 ± 10 % of mean of controls and the “Histamine concentration in peritoneal fluid as % of mean of controls” value is recorded as 42 ± 6 % of mean of controls. Further, in assay [1] (2 × 10^-6 M injected ip), the “Dye concentration in peritoneal fluid as % of mean of controls” value was 104 ± 20 % of mean of controls and the “Histamine concentration in peritoneal fluid as % of mean of controls” value was 89 ± 7 % of mean of controls. In addition, in assay [2], the IC50 was approximately 50 nM.

Take `CCCc1c(OCCCOc2ccc3c(=O)c4[nH]nnc4oc3c2C)ccc(C(C)=O)c1O` [Example 1, 6-[3-(4-Acetyl-3-hydroxy-2-n-propylphenoxy)propan-1-yloxy]-5-methyl-9-oxo-1H,9H-benzopyrano[2,3,d]-v-triazole]: in assay [1] (2 × 10^-5 M injected ip), the “Dye concentration in peritoneal fluid as % of mean of controls” value is 54 ± 7 % of mean of controls and the “Histamine concentration in peritoneal fluid as % of mean of controls” value is 17 ± 2 % of mean of controls. In addition, in assay [1] (2 × 10^-6 M injected ip), the “Dye concentration in peritoneal fluid as % of mean of controls” value is recorded as 63 ± 5 % of mean of controls and the “Histamine concentration in peritoneal fluid as % of mean of controls” value was 18 ± 2 % of mean of controls. In addition, the IC50 in assay [2] is approximately 100 nM.

Take `CCCc1c(OCC(O)COc2ccc3c(=O)cc(C(=O)O)oc3c2CCC)ccc(C(C)=O)c1O` (stereo not shown) [FPL 55712]: the “inhibition of released SRS-A” value in the assay on released SRS-A is recorded as “inhibit released SRS-A”. Moreover, in assay [3], the “inhibition of release of allergic response mediators” value is recorded as “able to effect at least some inhibition of release of these allergic response mediators”.

`CCCc1c(OCC(O)COc2ccc3c(=O)c4[nH]nnc4oc3c2)ccc(C(C)=O)c1O` (stereo not shown) [Example 3, 6-[3-(4-Acetyl-3-hydroxy-2-n-propylphenoxy)-2-hydroxypropan-1-yloxy]-9-oxo-1H,9H-benzopyrano[2,3-d]-v-triazole]: the “Dye concentration in peritoneal fluid as % of mean of controls” value in assay [1] (2 × 10^-6 M injected ip) is given as 51 ± 5 % of mean of controls; in assay [1] (2 × 10^-7 M injected ip), 74 ± 9 % of mean of controls. The “Histamine concentration in peritoneal fluid as % of mean of controls” value in assay [1] (2 × 10^-6 M injected ip) is listed as 16 ± 2 % of mean of controls; in assay [1] (2 × 10^-7 M injected ip), 56 ± 5 % of mean of controls. For the same compound, the IC50 in assay [2] was approximately 63 nM.
